In patent US10183944B2 (Asana Biosciences, LLC, priority 2011, dated 2019):
Marks after values point to notes of the source that are not given here.

Key:
[1] = target: JAK2 (Homo sapiens (Human), UniProt O60674); test: Inhibition of enzymatic JAK2 kinase activity (TR-FRET); format: biochemical; conditions: read-out: IC50 JAK
In short: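 TR-FRET read-out (Eu antibody donor, Ulight poly Glu-Tyr acceptor, 665/615 nm ratio) after a 60 min RT kinase reaction with ATP, begun following 30 min compound–enzyme preincubation. Stopped by EDTA; inhibition expressed as 100 minus % activity of positive control.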

[2] = test system: Collagen Induced Arthritis (CIA) in female Lewis rats; test: In vivo chronic study: Collagen Induced Arthritis (CIA); design: species or system rat; conditions: 2 × 30 mg/Kg
From the text: Collagen Induced Arthritis (CIA) is a well characterized model of human rheumatoid arthritis (RA) that can be induced in susceptible animals following immunization with type II collagen (cII) in Freund's adjuvant. […] Pathophysiology of CIA consists of T cell component, as evidenced by increased infiltration of T-cells in joint synovium and also, by attenuation of CIA in T-cell deficient mice. CIA development involves B cell component too, as is evidenced by circulating cII antibody in disease animals and also, failure to develop the disease in xid mice/B cell deficient mice/CXCR5 null mice. […] See, Pine, “Inflammation and bone erosion are suppressed in models of rheumatoid arthritis following treatment with a novel Syk inhibitor”, Clin. Immunol., 2007, 124(3):244-57; Xiong cha, “Suppression of the onset and progression of collagen-induced arthritis in rats by QFGJS, a preparation from an anti-arthritic Chinese herbal formula”, J. Ethnopharmacology (2007) 110:39-48; and Stolina, “The evolving systemic and local biomarker milieu at different stages of disease progression in rat collagen induced arthritis”, Biomarkers (2008) 13(7-8):692-712, which are herein incorporated by reference.
Female Lewis rats (8 per group, 6-8 weeks old) were immunized on day 1 with type II collagen (Immunization grade Bovine type II; Chondrex; Cat #20021) emulsified with Complete Freund's Adjuvant (Sigma; Cat# F5881) at a final concentration of 1.2 mg/mL). For the initial immunization, the animals were injected at the base of the tail with 300 μg of the cII (0.25 mL/rat). A booster injection of the same type II collagen emulsified with Incomplete Freund's Adjuvant (Sigma, Cat #F5506) (0.25 mL/rat) was given to the animals on day 8 at the base of the tail (100 μg). The final cII concentration in the booster was […].
Animals with an arthritic score of ≥1 were grouped and dosing with test compound (30 mg/kg bid) or methotrexate (0.5 mg/kg) started between about day 12 to day 14, with daily dosing of their respective compounds continuing for 10 days.
Edema: Paw volumes are measured by Plethysmometry for the animals before induction of CIA (Basal readings) and on Day 1, 3, 6 and 9 of dosing period. Both hind paw volumes were measured and edema was calculated by subtracting from the basal mean.
Arthritic score: Animals were scored for the symptoms of arthritis every day starting from Day of onset of disease till the end of the study. Both the hind paws were scored and the total scores were averaged and compared with control. The scoring pattern was as follows:
The percent inhibition of Edema was calculated with respect to control by the formula: […]
The percent inhibition of Arthritic score was calculated with respect to control by the formula: […]
Means of different groups were compared with control using one way ANOVA followed by Dunnett's test. Significance is represented as follows.

Chain of JAK2 (O60674 808-1132): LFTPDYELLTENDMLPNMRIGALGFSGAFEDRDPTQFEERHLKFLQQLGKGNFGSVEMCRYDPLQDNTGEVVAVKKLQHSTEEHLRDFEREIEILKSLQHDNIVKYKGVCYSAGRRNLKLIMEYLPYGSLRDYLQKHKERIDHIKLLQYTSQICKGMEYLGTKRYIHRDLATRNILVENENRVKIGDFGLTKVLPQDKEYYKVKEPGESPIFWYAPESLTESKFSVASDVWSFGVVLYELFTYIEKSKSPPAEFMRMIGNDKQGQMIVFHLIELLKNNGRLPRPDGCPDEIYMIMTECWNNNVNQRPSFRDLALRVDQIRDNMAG

Compound	IC50 [1] [nM]	Percent inhibition of Edema (Day 9 of dosing) [2]	Percent inhibition of Arthritic score (Day 10 of dosing) [2]
N#CCC1CCN(c2nc(Nc3ccc(N4CCN(CCO)CC4)cc3)c3c(=O)[nH]ncc3n2)CC1 [Example 191, 2-(1-(4-((4-(4-(2-hydroxyethyl)piperazin-1-yl)phenyl)amino)-5-oxo-5,6-dihydropyrimido[4,5-d]pyridazin-2-yl)piperidin-4-yl)acetonitrile]	< 10	90***	100***
Cl.O=c1[nH]ncc2nc(-c3ccccc3)nc(Nc3ccc(CN4CCNCC4)cc3)c12 [Example 7, 2-phenyl-4-(4-(piperazin-1-ylmethyl)phenylamino)pyrimido[4,5-d]pyridazin-5(6H)-one hydrochloride]	< 50		
O=C(O)CC1CCN(c2ccc(Nc3nc(N4CCCCCC4)nc4cn[nH]c(=O)c34)cn2)CC1 [Example 108, 2-(1-(5-((2-(azepan-1-yl)-5-oxo-5,6-dihydropyrimido[4,5-d]pyridazin-4-yl)amino)pyridin-2-yl)piperidin-4-yl) acetic acid]	< 10	42***	53***
O=C(O)C1CC12CCN(c1ccc(Nc3nc(-c4ccccc4)nc4cn[nH]c(=O)c34)cc1)CC2 (centres unmarked) [Example 19, 6-(4-(5-oxo-2-phenyl-5,6-dihydropyrimido[4,5-d]pyridazin-4-ylamino)phenyl)-6-azaspiro[2.5]octane-1-carboxylic acid]	< 10	5**	20*
O=C(O)C1CC12CCN(c1ccc(Nc3nc(N4CCCCCC4)nc4cn[nH]c(=O)c34)cc1)CC2 (centres unmarked) [Example 62, 6-(4-((2-(azepan-1-yl)-5-oxo-5,6-dihydropyrimido[4,5-d]pyridazin-4-yl)amino)phenyl)-6-azaspiro[2.5]octane-1-carboxylic acid]	< 10	69***	81***
O=C(O)C1CCN(c2ccc(Nc3nc(-c4ccccc4)nc4cn[nH]c(=O)c34)cc2)CC1 [Example 13, 1-(4-(5-oxo-2-phenyl-5,6-dihydropyrimido[4,5-d]pyridazin-4-ylamino)phenyl)piperidine-4-carboxylic acid]	< 10		
N#CCC1CCN(c2nc(Nc3ccc(N4CCC(O)CC4)cc3)c3c(=O)[nH]ncc3n2)CC1 [Example 189, 2-(1-(4-((4-(4-hydroxypiperidin-1-yl)phenyl)amino)-5-oxo-5,6-dihydropyrimido[4,5-d]pyridazin-2-yl)piperidin-4-yl)acetonitrile]	< 50	90***	94***
